The results in this text go back to US11980609B2, “LPA receptor antagonists and uses thereof” (Gilead Sciences, Inc., priority 2021, dated 2024).

This experiment deals with T1, human LPAR1 (Homo sapiens, UniProt Q92633).
T1 construct: host or cells: CHO-K1
Nature of the experiment: LPAR1 intracellular calcium mobilization assay (antagonist mode). As to conditions: CHO-K1 EDG2 cells expressing human LPAR1; 60 min pre-incubation with compound (0.5 nM to 10 μM), then LPA 18:2 challenge; FLIPR Tetra calcium signal. It is filed as cell-based. How it is done: In vitro LPAR1 activity was measured in an intracellular calcium mobilization assay.
CHO-K1 EDG2 cells (DiscoverX cat #93-0644C2) expressing human LPAR1 (NM_001401.3) were seeded in a total volume of 25 μL of Dulbecco's Modification of Eagle's Medium (DMEM) with 10% Fetal Bovine Serum, 1× PenStrepGlutamine, 300 μg/ml Hygromycin, and 800 μg/ml G418 into 384-well tissue culture plate (Grenier #781091) at 15,000 cells/well and incubated at 37° C. overnight. Prior to testing, 25 μL Calcium Loading Dye Component A (FLIPR Calcium 6 Assay Kit Molecular Device #R8190) and 2.5 mM Probenecid (Invitrogen #P36400, prepared fresh) in Hank's Balanced Salt Solution (Corning #21-023-CV), 20 mM HEPES (Corning #25-060-CI), 0.1% Bovine Serum Albumin (Sigma-Aldrich #A7906-500G) was add to the cells for 60 minutes at 37° C.
Agonist dose curves of LPA 18:2 (Avanti Polar Lipids cat #857138, 0.5 nM to 10 μM) were recorded to determine the LPA 18:2 EC80 for subsequent antagonist assays. For agonist dose curves, cells were removed from the incubator 2 hours after dye loading and transferred to the FLIPR Tetra instrument (Molecular Devices, San Jose, CA). Calcium mobilization was monitored for 5 min and 10 μL 6×LPA in HBSS/20 mM Hepes/0.1% bovine serum albumin (BSA) was added to the cells 5 seconds into the assay.
To determine the LPAR1 antagonist activity of test compounds, cells were pre-incubated with test compound at a dose range of 0.5 nM to 10 μM, followed by LPA at […] concentration (100 nM). After dye loading, cells were removed from the incubator and 0.3 μL of 200× antagonist was added. Cells were incubated for 60 minutes at 37° C. Antagonist activity was measured on a FLIPR Tetra. Calcium mobilization was monitored for 3.5 minutes and 10 μL 6×EC80 LPA in HBSS, 20 mM HEPES, and 0.1% BSA was added to the cells 5 seconds into the assay. Signal amplitude (Maximum minus minimum) values were plotted against log10 of antagonist concentration using Dose Response Tool (Gilead Sciences Inc.) to determine EC50.
To assess the antagonistic potential of exemplified compounds EC50 values were determined for Compounds 1 to 55 in the LPAR1 calcium mobilization assay. The compound numbers correspond to the compound numbers in Examples 1 to 35. N/A=not available.
Background: A change in cytosolic calcium serves as a functional read-out for many receptors and channels.

A word on the EC50: it is the concentration giving half of the maximal effect.

SMILES strings stand for the structures.

T1 sequence (Q92633 whole entry): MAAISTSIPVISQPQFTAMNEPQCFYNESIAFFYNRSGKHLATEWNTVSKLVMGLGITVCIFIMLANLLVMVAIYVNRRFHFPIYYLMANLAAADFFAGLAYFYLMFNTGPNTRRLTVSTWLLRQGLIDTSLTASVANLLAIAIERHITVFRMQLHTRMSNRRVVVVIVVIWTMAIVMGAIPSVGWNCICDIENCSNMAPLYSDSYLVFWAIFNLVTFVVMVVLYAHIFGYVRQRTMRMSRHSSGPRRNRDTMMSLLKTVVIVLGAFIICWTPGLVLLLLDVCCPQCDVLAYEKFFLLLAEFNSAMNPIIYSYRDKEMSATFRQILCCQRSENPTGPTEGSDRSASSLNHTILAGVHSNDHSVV

For the compound `C[C@@H](OC(=O)Nc1c(-c2ncc(NC(=O)c3cnc(C(F)F)nc3)cc2F)cnn1C)c1cc(F)cnc1F` [Compound 18, (R)-1-(2,5-difluoropyridin-3-yl)ethyl (4-(5-(2-(difluoromethyl)pyrimidine-5-carboxamido)-3-fluoropyridin-2-yl)-1-methyl-1H-pyrazol-5-yl)carbamate], the EC50 was 36.1 nM.
Take `C[C@@H](OC(=O)Nc1c(-c2ncc(OS(C)(=O)=O)cn2)cnn1C)c1cccnc1F` [Compound 8, (R)-2-(5-(((1-(2-fluoropyridin-3-yl)ethoxy)carbonyl)amino)-1-methyl-1H-pyrazol-4-yl)pyrimidin-5-yl methanesulfonate]: the EC50 worked out at 523 nM.
On to `C[C@@H](OC(=O)Nc1c(-c2ncc(OS(=O)(=O)C3CC3)cn2)cnn1C)c1cccnc1F` [Compound 7, (R)-2-(5-(((1-(2-fluoropyridin-3-yl)ethoxy)carbonyl)amino)-1-methyl-1H-pyrazol-4-yl)pyrimidin-5-yl cyclopropanesulfonate], for which the EC50 is 1410 nM.
Consider `C[C@@H](OC(=O)Nc1c(-c2ncc(OS(C)(=O)=O)cn2)cnn1C)c1cc(F)cnc1Cl` [Compound 6, (R)-2-(5-(((1-(2-chloro-5-fluoropyridin-3-yl)ethoxy)carbonyl)amino)-1-methyl-1H-pyrazol-4-yl)pyrimidin-5-yl methanesulfonate], for which the EC50 turned out to be 14.1 nM.
To `C[C@@H](OC(=O)Nc1c(-c2ncc(OC(F)F)cn2)cnn1C)c1cc(F)cnc1F` [Compound 55, (R)-1-(2,5-difluoropyridin-3-yl)ethyl (4-(5-(difluoromethoxy)pyrimidin-2-yl)-1-methyl-1H-pyrazol-5-yl)carbamate] belongs 1780 nM; to `C[C@@H](OC(=O)Nc1c(-c2ncc(NC(=O)C3(C#N)CC3)cn2)cnn1C)c1cccnc1F` [Compound 42, (R)-1-(2-fluoropyridin-3-yl)ethyl (4-(5-(1-cyanocyclopropane-1-carboxamido)pyrimidin-2-yl)-1-methyl-1H-pyrazol-5-yl)carbamate], 54.9 nM; to `C[C@@H](OC(=O)Nc1c(-c2ncc(O)cn2)cnn1C)c1cccnc1Cl` [Compound 44, (R)-1-(2-chloropyridin-3-yl)ethyl (4-(5-hydroxypyrimidin-2-yl)-1-methyl-1H-pyrazol-5-yl)carbamate], 120 nM.
As for `C[C@@H](OC(=O)Nc1c(-c2ncc(O)cc2F)cnn1C)c1cccnc1Cl` [Compound 10, (R)-1-(2-chloropyridin-3-yl)ethyl (4-(3-fluoro-5-hydroxypyridin-2-yl)-1-methyl-1H-pyrazol-5-yl)carbamate], the concentration for a half-maximal effect (EC50) stood at 56.8 nM.
Take `C[C@@H](OC(=O)Nc1c(-c2ccc(NC(=O)C3(C#N)CC3)cn2)cnn1C)c1cc(F)cnc1F` [Compound 19, (R)-1-(2,5-difluoropyridin-3-yl)ethyl (4-(5-(1-cyanocyclopropane-1-carboxamido)pyridin-2-yl)-1-methyl-1H-pyrazol-5-yl)carbamate]: the EC50 is 763 nM.
As for `CCS(=O)(=O)Oc1cnc(-c2cnn(C)c2NC(=O)O[C@H](C)c2cc(F)cnc2Cl)nc1` [Compound 5, (R)-2-(5-(((1-(2-chloro-5-fluoropyridin-3-yl)ethoxy)carbonyl)amino)-1-methyl-1H-pyrazol-4-yl)pyrimidin-5-yl ethanesulfonate], the EC50 turned out to be 51.5 nM.
To `C[C@@H](OC(=O)Nc1c(-c2ncc(NC(=O)C3(C(F)F)CC3)cn2)cnn1C)c1cc(F)cnc1Cl` [Compound 25, (R)-1-(2-chloro-5-fluoropyridin-3-yl)ethyl (4-(5-(1-(difluoromethyl)cyclopropane-1-carboxamido)pyrimidin-2-yl)-1-methyl-1H-pyrazol-5-yl)carbamate] belongs 60.5 nM; to `C[C@@H](OC(=O)Nc1c(-c2ncc(NC(=O)C3(C)CC(F)(F)C3)cn2)cnn1C)c1cc(F)cnc1F` [Compound 35, (R)-1-(2,5-difluoropyridin-3-yl)ethyl (4-(5-(3,3-difluoro-1-methylcyclobutane-1-carboxamido)pyrimidin-2-yl)-1-methyl-1H-pyrazol-5-yl)carbamate], 14 nM; to `C[C@@H](OC(=O)Nc1c(-c2ncc(NC(=O)C34CC(F)(C3)C4)cc2F)cnn1C)c1cc(F)cnc1F` [Compound 16, (R)-1-(2,5-difluoropyridin-3-yl)ethyl (4-(3-fluoro-5-(3-fluorobicyclo[1.1.1]pentane-1-carboxamido)pyridin-2-yl)-1-methyl-1H-pyrazol-5-yl)carbamate], 15.8 nM.
To `C[C@@H](OC(=O)Nc1c(-c2ncc(NC(=O)c3ccc(Cl)nc3)cn2)cnn1C)c1cc(F)cnc1F` [Compound 26, (R)-1-(2,5-difluoropyridin-3-yl)ethyl (4-(5-(6-chloronicotinamido)pyrimidin-2-yl)-1-methyl-1H-pyrazol-5-yl)carbamate] belongs 20.6 nM.
`C[C@@H](OC(=O)Nc1c(-c2ccc3c(n2)OCC(=O)N3)cnn1C)c1cc(F)cnc1Cl` [Compound 15, (R)-1-(2-chloro-5-fluoropyridin-3-yl)ethyl (1-methyl-4-(2-oxo-2,3-dihydro-1H-pyrido[2,3-b][1,4]oxazin-6-yl)-1H-pyrazol-5-yl)carbamate]: the concentration for a half-maximal effect (EC50) was found to be 25.7 nM.
Take `C[C@@H](OC(=O)Nc1c(-c2ncc(NC(=O)c3cnc(C(F)F)nc3)cn2)cnn1C)c1cc(F)cnc1F` [Compound 24, (R)-1-(2,5-difluoropyridin-3-yl)ethyl (4-(5-(2-(difluoromethyl)pyrimidine-5-carboxamido)pyrimidin-2-yl)-1-methyl-1H-pyrazol-5-yl)carbamate]: the EC50 was 26.8 nM.
To `C[C@@H](OC(=O)Nc1c(-c2ccc(NS(C)(=O)=O)cn2)cnn1C)c1cccnc1Cl` [Compound 20, (R)-1-(2-chloropyridin-3-yl)ethyl (1-methyl-4-(5-(methylsulfonamido)pyridin-2-yl)-1H-pyrazol-5-yl)carbamate] belongs 216 nM; to `Cc1nc(-c2cnn(C)c2NC(=O)O[C@H](C)c2cccnc2Cl)ncc1OS(C)(=O)=O` [Compound 3, (R)-2-(5-(((1-(2-chloropyridin-3-yl)ethoxy)carbonyl)amino)-1-methyl-1H-pyrazol-4-yl)-4-methylpyrimidin-5-yl methanesulfonate], 39.6 nM; to `C[C@@H](OC(=O)Nc1c(-c2ncc(NC(=O)C34CC(C(F)F)(C3)C4)cn2)cnn1C)c1cc(F)cnc1F` [Compound 31, (R)-1-(2,5-difluoropyridin-3-yl)ethyl (4-(5-(3-(difluoromethyl)bicyclo[1.1.1]pentane-1-carboxamido)pyrimidin-2-yl)-1-methyl-1H-pyrazol-5-yl)carbamate], 23.7 nM.
For the compound `C[C@@H](OC(=O)Nc1c(-c2ncc(O)cn2)cnn1C)c1cc(F)cnc1F` [Compound 45, (R)-1-(2,5-difluoropyridin-3-yl)ethyl (4-(5-hydroxypyrimidin-2-yl)-1-methyl-1H-pyrazol-5-yl)carbamate], the half-maximal effective concentration (EC50) stood at 301 nM.
To `C[C@@H](OC(=O)Nc1c(-c2ncc(NC(=O)C3(C#N)CC3)cn2)cnn1C)c1cc(F)cnc1Cl` [Compound 23, (R)-1-(2-chloro-5-fluoropyridin-3-yl)ethyl (4-(5-(1-cyanocyclopropane-1-carboxamido)pyrimidin-2-yl)-1-methyl-1H-pyrazol-5-yl)carbamate] belongs 16.8 nM.
